In brackets after ≈: the same amount, converted by molar mass.
What was measured:
Cytochrome P450 = experiment: Drug metabolism in human hepatocytes assessed as fraction of Cyp mediated oxidative metabolism in presence of NADPH; format: ADME, cell-based, Hepatocyte
CYP3A4 [1] = target: T1, CYP3A4 (Homo sapiens, UniProt P08684); experiment: Induction of CYP3A4 in human hepatocytes; format: ADME, cell-based, Hepatocyte
CYP3A4 [2] = target: T1, CYP3A4; experiment: Induction of CYP3A4 in human hepatocytes assessed as maximum efficacy relative to control
D(1A) dopamine receptor = D(1A) dopamine receptor (Homo sapiens, UniProt P21728); experiment: Positive allosteric modulation of human D1 receptor in HEK293 cells assessed as increase in cyclic AMP production measured after 60 mins in presence of dopamine by HTRF assay; format: cell-based
Chain of D(1A) dopamine receptor (P21728 whole entry): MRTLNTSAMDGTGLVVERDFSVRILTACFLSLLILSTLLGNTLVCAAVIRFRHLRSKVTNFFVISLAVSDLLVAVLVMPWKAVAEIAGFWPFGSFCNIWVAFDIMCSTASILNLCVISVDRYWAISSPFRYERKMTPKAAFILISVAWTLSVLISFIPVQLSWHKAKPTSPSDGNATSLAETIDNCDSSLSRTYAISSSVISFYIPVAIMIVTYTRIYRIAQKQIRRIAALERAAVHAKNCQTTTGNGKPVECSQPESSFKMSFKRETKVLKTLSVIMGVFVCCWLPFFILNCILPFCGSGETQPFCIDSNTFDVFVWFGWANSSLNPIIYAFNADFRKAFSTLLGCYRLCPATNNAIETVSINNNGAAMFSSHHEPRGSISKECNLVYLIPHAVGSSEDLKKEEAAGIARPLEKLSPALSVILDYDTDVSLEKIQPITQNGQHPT

[3] = Solubility of compound at pH 6 by HTSA assay; format: physicochemical; details: buffer

T1 sequence (P08684 whole entry): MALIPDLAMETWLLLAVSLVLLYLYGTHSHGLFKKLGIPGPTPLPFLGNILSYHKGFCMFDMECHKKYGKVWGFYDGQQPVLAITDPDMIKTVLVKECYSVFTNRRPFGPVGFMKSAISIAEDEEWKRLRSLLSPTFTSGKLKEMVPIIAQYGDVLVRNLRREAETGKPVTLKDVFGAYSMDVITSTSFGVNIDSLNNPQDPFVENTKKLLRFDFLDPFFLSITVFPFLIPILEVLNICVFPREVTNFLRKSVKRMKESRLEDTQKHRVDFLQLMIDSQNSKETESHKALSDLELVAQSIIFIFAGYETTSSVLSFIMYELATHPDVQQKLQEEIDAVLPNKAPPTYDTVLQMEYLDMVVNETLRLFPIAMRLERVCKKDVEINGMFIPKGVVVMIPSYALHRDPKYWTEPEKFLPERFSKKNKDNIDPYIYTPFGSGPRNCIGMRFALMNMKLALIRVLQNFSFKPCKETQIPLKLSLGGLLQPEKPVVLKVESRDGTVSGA

Fm (Cytochrome P450)	EC50 (CYP3A4 [1])	Emax (CYP3A4 [2])	EC50 (D(1A) dopamine receptor)	solubility [3]	Structure (SMILES)
0.6	5500 nM	42%	–	–	C[C@H]1c2cccc(CCC(C)(C)O)c2C[C@H](CO)N1C(=O)Cc1c(Cl)cccc1Cl
–	–	–	6.41 nM	27 µg/mL (≈ 62.7 µM)	C[C@H]1c2cccc(-c3cn[nH]c3)c2C[C@H](CO)N1C(=O)Cc1c(Cl)cccc1Cl
–	–	–	10.3 nM	2 µg/mL (≈ 4.25 µM)	C[C@H]1c2cccc(-c3cnn(C4CC4)c3)c2C[C@H](CO)N1C(=O)Cc1c(Cl)cccc1Cl
–	–	–	15.9 nM	12 µg/mL (≈ 26.2 µM)	CCn1cc(-c2cccc3c2C[C@H](CO)N(C(=O)Cc2c(Cl)cccc2Cl)[C@H]3C)cn1
–	–	–	–	35 µg/mL (≈ 72 µM)	C[C@H]1c2cccc(-c3cnn(C4COC4)c3)c2C[C@H](CO)N1C(=O)Cc1c(Cl)cccc1Cl

Source: ChEMBL document CHEMBL5104100, “Synthesis and Preclinical Characterization of LY3154885, a Human Dopamine D1 Receptor Positive Allosteric Modulator with an Improved Nonclinical Drug-Drug Interaction Risk Profile” (J Med Chem, 2022)
